Reference: patent publication US20100292178A1, “Method of treating non-insulin dependent diabetes mellitus and related complications” (priority 2003, published 2010)
Where two headings read alike, the source gives them in different places. Values belong to the compound of their own block, whether it stands above or below them.

Columns and labels:
[1] = system: patients with diabetic limb-end gangrene; experiment: Clinical observation of diabetic limb-end gangrene treated with Glucosynergy
[2] = rabbit, in vivo
Procedure: Pharmokinetic properties of berberine are performed by conventional method involving radioactive isotope. […] All samples are calibrated by using an internal standard.
300 μg quinidine is added to the test tube as an internal standard. One ml chloroform is added into the test tube, which is shaken for ten minutes. Then, the test tube is centrifuged at 400 rev/min for five minutes with a sufficient gravity for separating residues from its liquid. An absolute amount of 0.8 ml of the chloroform is collected by a pipette and is subsequently dried by blowing air. The residue from the dried chloroform is collected and dissolved in a suitable amount of dry ethanol which contains essentially no water. The sample is ready for analysis using thin layer chromatography.
A silica gel plate is cut into nine strips, each being 1.0 cm wide. Separation is conducted under running buffer of ethyl acetate, ethyl methanoate, methanol and water mixture at a ratio of 5.4:4.6:1.2:1.0. The sample size is 5 μl. When a desirable separation is achieved, the strips are scanned for reflective intensity at wavelength λex, 350 nm and λem 550 nm using Japanese Shimatsu CS-900 double wavelengths thin layer reflective straight line scanner with a Xenon lamp. […] All scans are performed with 0.5 mm×10 mm slit, at scanning speed 20 mm/min, and at recording paper speed 10 mm/min.
After the blood serum's pH is adjusted to basic, ethyl ether is used to extract berberine. After it is dried, the residues are dissolved in a mobile phase. A fixed amount of sample is introduced into the HPLC system containing a reverse C18 column. The mobile phase is methanol, water and ethylenediamine at a ratio of 75:25:0.5. The pH is adjusted to 6.8 by using acetic acid. Concentration or amount is monitored at wavelength (λ) 345 nm.
C=Ae^−a+Be^−β−(A−B)e^−kat, where ka is average rate constant weighed by their coefficients: ka=(Aβ+Bα)/(A+B).

[3] = Excretion of labeled berberine after injection into large mice; format: in vivo; settings: within six days after injection
Excerpt: Within the six days after the injection of the labeled berberine into large mice, the amounts of the labeled berberine found in the mice's urine and feces were 73% and 10.9% of the injected concentration respectively. The labeled berberine found in the urine was primarily the original form although some of it became metabolized products.
(§1) All samples are calibrated by using an internal standard.

[4] = Pharmacokinetics of a single oral dose of berberine in human patients; format: in vivo; settings: 300 mg orally
[5] = design: species or system domestic rabbits; settings: rabbit, in vivo
Procedure: The effect of the berberine is the most quickly and distributed extensively, when the berberine is labeled with Hydrogen 3 and is administered to domestic rabbits by direct feeding that berberine is injected through a non-invasive tube directly through the mouth or by injection. […] The total amount in the blood plasma is 38%±3%.
as §1

[6] = cited from earlier work
[7] = 70 cases Observation Group, 50 cases Contrast Group
[8] = Treatment Group 18 cases, Contrast Group 6 cases

SMILES: CN(C)C(=N)N=C(N)N [Glucophage]
electrocardiogram hypertrophic cardiomyopathy: effective [1, 7]: 12 cases
electrocardiogram hypertrophic cardiomyopathy: not effective [1, 7]: 35 cases
electrocardiogram hypertrophic cardiomyopathy: outstandingly effective [1, 7]: 3 cases
electrocardiogram hypertrophic cardiomyopathy: total effective rate [1, 7]: 30%
Fibrinogen ([1]; After Treatment): 3.45 ± 0.44 q/L
HDL ([1]; After Treatment): 1.12 ± 0.24 mmol/L
LDL ([1]; After Treatment): 4.51 ± 0.81 mmol/L
Red Cells Accumulation ([1]; After Treatment): 49.50 ± 4.86%
TC ([1]; After Treatment): 5.40 ± 0.76 mmol/L
TG ([1]; After Treatment): 3.39 ± 0.76 mmol/L
Total Blood Viscosity High Excise ([1]; After Treatment): 6.33 ± 0.34 mpa · s
Total Blood Viscosity Low Excise ([1]; After Treatment): 15.19 ± 2.10 mpa · s
Viscosity Plasma ([1]; After Treatment): 2.45 ± 0.37
Fibrinogen ([1]; Before Treatment): 3.90 ± 0.81 q/L
HDL ([1]; Before Treatment): 1.07 ± 0.20 mmol/L
LDL ([1]; Before Treatment): 5.27 ± 1.24 mmol/L
Red Cells Accumulation ([1]; Before Treatment): 49.58 ± 4.34%
TC ([1]; Before Treatment): 5.89 ± 1.17 mmol/L
TG ([1]; Before Treatment): 3.54 ± 0.67 mmol/L
Total Blood Viscosity High Excise ([1]; Before Treatment): 6.23 ± 0.57 mpa · s
Total Blood Viscosity Low Excise ([1]; Before Treatment): 15.21 ± 2.17 mpa · s
Viscosity Plasma ([1]; Before Treatment): 2.72 ± 0.66
cases ineffective ([1]; Contrast Group 6 cases): 3 cases
cases improved [1, 8]: 2 cases
cases recovered [1, 8]: 1 cases
24 hours fixed quantity of uric sugar, Before Treatment ([1]; baseline): 15.23 ± 3.02 g/24 h
Serum SOD Vitality, Before Treatment ([1]; baseline): 89.96 ± 18.21 nu/L
24 hours fixed quantity of uric sugar, After Treatment ([1]; human, in vivo): 8.37 ± 1.89 g/24 h
Serum SOD Vitality, After Treatment ([1]; human, in vivo): 94.21 ± 17.03 nu/L
Serum SOD Vitality, Value of Difference ([1]; human, in vivo): −4.25 ± 3.33 nu/L

time to maximum concentration in the blood [2]: about 50 minutes
apparent distribution volume (Vd) ([2]; iv): 22.1 ± 1.71 L/kg
apparent half life for elimination (t½ β) ([2]; iv): 35.8 ± 2.0 h
apparent half life of distribution (t½ α) ([2]; iv): 1.03 ± 0.11 h
apparent drug distribution volume (Vd) ([2]; po): 20 ± 3 L/kg
apparent half life for elimination (t½ β) ([2]; po): 35.3 ± 1.3 h
apparent half life of distribution (t½ α) ([2]; po): 1.41 ± 0.16 h
apparent rate constant ka ([2]; po): 2.45±0.22 per hour
amount of labeled berberine found in feces [3]: 10.9 % of the injected concentration
amount of labeled berberine found in urine [3]: 73 % of the injected concentration
maximum plasma concentration Cmax [4]: 395 ng/mL
t½ corresponding to elimination rate constant Ke [4]: 2.94 h
Tmax ([4]; human, plasma, po, read-out: time to peak plasma concentration, tmax): 2.37 h
half-life ([4]; human, plasma, po, read-out: t½ corresponding to apparent absorption rate constant ka (converted)): 0.87 h
total amount in the blood plasma [5]: 38%±3%
SMILES: COc1ccc2cc3[n+](cc2c1OC)CCc1cc2c(cc1-3)OCO2 [berberine]
tissue concentration measured by radiation intensity [5]: the highest in the lung, and then in liver, spleen, kidney and heart

SMILES: OC[C@H]1O[C@@H](O[C@@H]2OC=C[C@H]3[C@H](O)[C@@H]4O[C@]4(CO)[C@@H]23)[C@H](O)[C@@H](O)[C@@H]1O [catalpol]
solubility in lipophilic organic solvents ([6]; chloroform, benzene, petroleum ether): almost insoluble
solubility in water and methanol [6]: highly soluble
